This is an account of results in patent US20170151278A1, “T[…] RELEASING SYSTEM” (priority 2014, published 2017).

Data set [1] in a line: CO release from CORM-2 suspension, amperometric detection in a sealed flask, triggered by Na2SO3. It counts as physicochemical. The text has this:
An Erlenmeyer flask purchased from Gebr. Rettberg (Gottingen, Germany) was used as reaction space. For insertion of the CO sensor and to seal the reaction space, a conically tapered joint from Schott Medica (Wertheim, Germany) was equipped with a glass guide tube for an electric wire. As a prerequisite for cross referencing with calibration gas, a single-bore stopcock was connected to the Erlenmeyer flask as well as to the conically tapered joint. The integrated CO sensor of the “Ei207D” CO detector (Ei Electronics, Shannon, Ireland) was removed and externally connected using a “Wire Wrap” 0.404 mm^2 wire (Kabeltronik, Denkendorf, Germany) linked with a 1.3 mm accessory shoe (Vogt AG, Lostorf, Switzerland). The wire was glued into the guide tube with “UHU plus endfest” epoxide resin (UHU, Bũhl, Germany) to seal the system. On-line videos were collected monitoring the detector with USB webcams with the Eyeline video surveillance software (NCH Software, Canberra, Australia).
The CO release from CORM-2 was triggered by Na2SO3 and amperiometrically detected. For that, 4.3 mg CORM-2 were placed in the Erlenmeyer flask filled with 15 ml Millipore water and stirred at 130 rpm (Variomag Telesystem, Thermo Scientific, MA). After 25 minutes, 10 mg Na2SO3 were added to the reaction space. CO release in ppm as read from the detector of each system was calibrated with 100 ppm CO calibration gas (diluted in air; from Real Gas (Martinsried, Germany) and normalized, accordingly (see FIG. 1 for results).
A concentration series of CO was generated by transferring different amounts of CORM-2 into 25 mL of a stirred (130 rpm) 333 mg/L aqueous Na2SO3 solution. CO release [ppm] after 60-80 minutes was plotted against the amount of CORM-2 [mg] placed into the system. Following this procedure, CO release [ppm] is expressed as amount of CORM-2 [mg], with one CORM-2 equivalent being defined as the amount of CO released per milligram CORM-2 after 60-80 minutes and when exposed to the experimental conditions described in this section (see FIG. 2B for results). CO release from CORM-2 expressed in CORM-2 equivalents [mg] followed a linear pattern (y=0.0192+1.0199x; r^2>0.99; n=1 for 14 independent measurements).
CO data reported in the example is calculated from the corresponding release from CORM-2 equivalents and if reported for CORM-A1, calculated using linear regression. […] Therefore, CO loss by and from the system was quantified and basis for data correction. For the correction, the loss by and from the system was recorded and added to the data as read from the detector (vide infra). For assessment of CO loss and data correction, CO was generated from CORM-2 in presence of Na2SO3 with stirring at 130 rpm, until reaching a value of approximately 800 ppm. At this point the stirring was stopped. CO loss [ppm] was recorded when a value of 720 ppm was reached and followed an exponential decline (y=717.5*e−0.145x; r^2>0.99; n=5; see FIGS. 3A and 3B for results).

The nature of data set [2]: CO release from CORM-2 suspension in Na2SO3 solution as a function of ionic strength. It counts as physicochemical. The settings on record: n=3. The procedure: Experiments assessing the impact of the release medium on CO release (see FIG. 5A, 5B) were done in comparison to control experiments, within which 12 mg coated Na2SO3 crystals were measured in simulated gastric fluid without enzymes to control for possible detector interference with sulfites (interference was not observed with these experimental conditions; data not shown). Experiments assessing the impact of the coating procedure on CO release were done in comparison to control experiments, within which 3 mg CORM-2 was suspended in 25 mL of 0.333 g/L Na2SO3 solution (see FIG. 6 for results). In another set of control experiments, the impact of the ionic strength of the release medium and the impact of the salt with which the ionic strength was set (using sodium chloride solutions to set ionic strengths of 0.88 mol/L and 1.8 mol/L, respectively, and magnesium chloride to set an ionic strengths of 1.26 mol/L) on CO release was studied using CORM-2 suspensions. For that, CORM-2 was exposed to 25 mL of 0.333 g/L Na2SO3 in the appropriate release medium (for results, see FIG. 7).

Each structure is given as a SMILES string.

On to `[C-]#[O+].[C-]#[O+].[C-]#[O+].[C-]#[O+].[C-]#[O+].[C-]#[O+].[Cl][Ru][Cl].[Cl][Ru][Cl]` [CORM-2, Tricarbonyldichlororuthenium(II) dimer], for which the “CO release of CORM-2 suspended in water” value in data set [1] (4.3 mg CORM-2 in 15 ml water, before Na2SO3 was added) is listed as “no detectable CO release”. Besides, in data set [1] (10 mg Na2SO3 added after 25 min), the “time to complete CO release after Na2SO3 was added” value was not above 25 min. Further, in data set [1] (60-80 minutes in 25 mL of 333 mg/L aqueous Na2SO3, stirred at 130 rpm), the “CO release reached within the time frame” value was more than 90%. The “time to half maximal CO release” value in data set [1] (CORM-2 suspension control, 3 mg in 25 mL of 0.333 g/L Na2SO3) was 20 min. The compound further had a CO release plateau in data set [1] (after 40 minutes, Na2SO3 triggered) of 550 ppm. For the same compound, the “time at which CO release plateaus (corrected data)” value in data set [1] (sulfite triggered, corrected for CO loss) is on record as “approximately 140 minutes”. Besides, the “reduction of CO release” value in data set [2] (ionic strength 0.88 mol/L set with NaCl, compared with 0.008 mol/L) was determined as 26±9%; in data set [2] (ionic strength 1.26 mol/L set with MgCl2), 50±3%; in data set [2] (ionic strength 1.8 mol/L set with NaCl), 53±6%.
